Key:
OR13a = tested on: OR13a; set-up: method as in earlier work; settings: DoOR database value; ref DoOR; cited from earlier work
Drosophila OR10a = target: T1, Drosophila OR10a (Drosophila melanogaster, UniProt Q9VYZ1); experiment: Calcium ion fluorescence (GCaMP6) assay, OR10a stable HEK293 cell line; assay type: cell-based; settings: 50 µM, OR10a clone G5, single plate 2019.12.05
T1 construct: expressed in transfected cells
T1 sequence (Q9VYZ1 1-406): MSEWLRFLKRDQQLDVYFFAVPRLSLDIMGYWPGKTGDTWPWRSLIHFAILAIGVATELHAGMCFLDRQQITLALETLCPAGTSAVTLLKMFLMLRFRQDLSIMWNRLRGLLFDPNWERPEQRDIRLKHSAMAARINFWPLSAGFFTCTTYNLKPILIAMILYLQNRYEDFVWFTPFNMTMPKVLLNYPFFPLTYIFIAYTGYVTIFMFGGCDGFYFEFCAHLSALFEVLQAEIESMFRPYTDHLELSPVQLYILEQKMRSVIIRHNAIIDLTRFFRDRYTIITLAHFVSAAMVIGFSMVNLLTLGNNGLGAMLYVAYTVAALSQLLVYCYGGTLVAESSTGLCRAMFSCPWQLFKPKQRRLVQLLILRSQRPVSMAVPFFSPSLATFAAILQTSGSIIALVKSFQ
T1 sequence (Q9VNB5 1-486 partner): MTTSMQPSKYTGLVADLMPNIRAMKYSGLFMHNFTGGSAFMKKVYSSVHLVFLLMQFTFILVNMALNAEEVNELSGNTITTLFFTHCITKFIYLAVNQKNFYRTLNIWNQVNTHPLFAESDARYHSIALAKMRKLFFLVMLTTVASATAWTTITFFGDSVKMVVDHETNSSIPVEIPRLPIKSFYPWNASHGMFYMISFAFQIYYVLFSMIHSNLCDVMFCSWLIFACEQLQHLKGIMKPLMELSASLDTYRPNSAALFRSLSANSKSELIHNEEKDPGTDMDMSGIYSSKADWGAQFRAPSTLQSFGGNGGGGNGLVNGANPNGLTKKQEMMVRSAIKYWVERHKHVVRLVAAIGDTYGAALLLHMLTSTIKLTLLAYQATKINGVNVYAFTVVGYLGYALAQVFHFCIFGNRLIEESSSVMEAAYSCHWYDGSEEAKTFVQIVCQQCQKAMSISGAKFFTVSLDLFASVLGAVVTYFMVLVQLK
Protocol: (§1) These VUAA1 normalized ∆F values were used to compare the different receptors and ligands.
(§2) The concentration-dependent effect of the reference ligands on their cognate cell lines was examined in more detail. Twelve different ligand concentrations were measured on each cell line in an overall 0.01 μM to 100 μM concentration range with 5 repetitions with three technical replicates each time.
(§3) Twelve thousand to 18,000 cells were plated into each well of a black wall, transparent bottom 384-well microplate (Greiner) 48 h or 72 h before the measurements and were simultaneously treated with 1 μg/mL doxycycline. […] The plate has 24 columns, thus we could record responses in up to eight different cell lines in each plate. On the day of the experiment, the growth medium was replaced with 20 µL assay buffer/well (140 mM NaCl, 5 mM KCl, 2 mM CaCl2, 1 mM MgCl2, 5 mM HEPES-Na, 20 mM glucose, pH 7.3, 340 mOsm). […] Baseline fluorescence (F0) was recorded for 5 s, after which 7 µL VOC buffer (140 mM NaCl, 5 mM KCl, 2 mM CaCl2, 1 mM MgCl2, 5 mM HEPES-Na, 31 mM glucose, 0.1% DMSO, pH 7.3, 340 mOsm) was injected into each well in one row and the fluorescence response was recorded for an additional 30 s, at a rate of one read/sec. VOC solutions (VOC buffer with 4× concentration of the final measured VOC concentration, 9 µL/well was injected) were measured on the same wells in a second round with the same protocol. Each individual concentration of a specific VOC sample was recorded in three wells for the same cell line on the same microplate. The raw data were exported in xls file format, F0 and FMAX values, and the fluorescence intensity changes (∆F) were calculated in Excel (Microsoft) (Supplementary file Data summary.xlsx) using the following equation: ΔF=FMAX-F0/F0 (see also Fig. 1C). On each plate, we recorded the response of each cell line to 50 µM VUAA1. The average of these ∆F values of each cell line were used to calculate the VUAA1-normalized values for the rest of the plate, by dividing VOC response ∆F values by the average VUAA1 response ∆F value of the corresponding OR cell line. Each VOC-OR combination was measured three times as technical replicates. […] The average of these replicates were used as one ∆F and VUAA1-normalized ∆F in the following analysis.
(§4) In the next rows we tested the reference VOCs (or other VOCs known to activate the corresponding cell lines), in order to test if all cell lines are responsive. The remaining rows were used to test VOCs with unknown effect.
(§5) The recorded FMAX, F0, ∆F, VUAA1-normalized ∆F values, as well as the OR name, the name of the tested sample, and the final concentration for each well were copied into supplementary file Data summary.xlsx, that was used to summarize all the plates recorded. Here, the averages of the measurements were calculated for each receptor-VOC-concentration combination.

ORCO = target: T2, ORCO (Drosophila melanogaster, UniProt Q9VNB5); experiment: Origin of Ca2+ test, (GCaMP6-GSG)ORCO cell line; assay type: cell-based; settings: assay buffer lacking Ca2+, and lacking Ca2+ and containing EGTA
T2 sequence (Q9VNB5 1-486): T1 sequence (Q9VNB5 1-486 partner)
Excerpt: We tested for the origin of the Ca^2+ ions on two cell lines, OR47a and (GCaMP6-GSG)ORCO, with assay buffer lacking Ca^2+ and assay buffer lacking Ca^2+ and containing EGTA.

Drosophila OR47a = target: T3, Drosophila OR47a (Drosophila melanogaster, UniProt P81921); experiment: Calcium ion fluorescence (GCaMP6) assay, OR47a stable HEK293 cell line; assay type: cell-based; settings: OR47a cell line; assay buffer lacking Ca2+, and lacking Ca2+ and containing EGTA
T3 construct: expressed in transfected cells
T3 sequence (P81921 1-385): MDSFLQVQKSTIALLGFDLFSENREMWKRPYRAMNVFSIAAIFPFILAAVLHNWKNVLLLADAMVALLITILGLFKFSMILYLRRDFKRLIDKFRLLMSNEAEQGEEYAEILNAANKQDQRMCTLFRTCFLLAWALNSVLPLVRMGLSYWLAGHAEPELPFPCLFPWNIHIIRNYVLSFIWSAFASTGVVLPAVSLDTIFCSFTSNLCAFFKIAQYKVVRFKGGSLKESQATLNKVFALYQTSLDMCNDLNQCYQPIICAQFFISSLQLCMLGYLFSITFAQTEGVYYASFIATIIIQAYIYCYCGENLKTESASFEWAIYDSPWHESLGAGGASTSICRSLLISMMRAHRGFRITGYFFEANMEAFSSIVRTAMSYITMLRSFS
T3 sequence (Q9VNB5 1-486 partner): T1 sequence (Q9VNB5 1-486 partner)
Protocol: as §1, §2, §3, §4, §5

[1] = tested on: T4, OR cell lines (OR + ORCO); experiment: Maximum fluorescence change of the OR cell lines, long term stability testing / VUAA1 check; assay type: cell-based, Drosophila melanogaster
T4 construct: expressed in transfected cells
Protocol: as §1
Twelve thousand to 18,000 cells were plated into each well of a black wall, transparent bottom 384-well microplate (Greiner) 48 h or 72 h before the measurements and were simultaneously treated with 1 μg/mL doxycycline. […] The plate has 24 columns, thus we could record responses in up to eight different cell lines in each plate. On the day of the experiment, the growth medium was replaced with 20 µL assay buffer/well (140 mM NaCl, 5 mM KCl, 2 mM CaCl2, 1 mM MgCl2, 5 mM HEPES-Na, 20 mM glucose, pH 7.3, 340 mOsm). […] Baseline fluorescence (F0) was recorded for 5 s, after which 7 µL VOC buffer (140 mM NaCl, 5 mM KCl, 2 mM CaCl2, 1 mM MgCl2, 5 mM HEPES-Na, 31 mM glucose, 0.1% DMSO, pH 7.3, 340 mOsm) was injected into each well in one row and the fluorescence response was recorded for an additional 30 s, at a rate of one read/sec. VOC solutions (VOC buffer with 4× concentration of the final measured VOC concentration, 9 µL/well was injected) were measured on the same wells in a second round with the same protocol. Each individual concentration of a specific VOC sample was recorded in three wells for the same cell line on the same microplate. […] On each plate, we recorded the response of each cell line to 50 µM VUAA1. […] Each VOC-OR combination was measured three times as technical replicates. […]

Structure (SMILES)	OR13a DoOR response (OR13a)	DF norm, all technical replicates (Drosophila OR10a)	DF norm, outlier technical replicates removed (Drosophila OR10a)	DF, outlier technical replicates removed (Drosophila OR10a)	DF, all technical replicates (Drosophila OR10a; xc+0.1%DMSO)	response in assay buffer lacking Ca2+ (ORCO)	response in assay buffer lacking Ca2+ (Drosophila OR47a)	peaks of fluorescence intensity change ([1]; ORCO agonist VUAA1, highest over OR cell lines) [%]	response of the cell lines to VUAA1 ([1]; all cell lines, including the four non-responding OR lines)
CC(=O)CCC=C(C)C [6-methyl-5-hepten-2-one]	0.44								
CCc1ccc(NC(=O)CSc2nnc(-c3cccnc3)n2CC)cc1 [VUAA1, reference compound]		1	1	1.743	1.743	Neither of the cell lines responded	Neither of the cell lines responded	≤ 462	responded
